Among the data in patent US20220142164A1, “HERBICIDAL COMPOUNDS” (SYNGENTA CROP PROTECTION AG, priority 2019, published 2022) are pest or weed control values, retold here.

The structures appear in SMILES notation.

Test in all cases: Post-emergence efficacy, glasshouse pot test
Common to all, as to assay type: in vivo
Common to all, as to settings: 312 h, post-emergence spray, Application Rate 500 g/Ha, evaluated after 13 days, 100=total damage to plant, 0=no damage to plant

Experiment [1] has as its system Amaranthus palmeri (AMAPA). Here is the method: (§1) Seeds of a variety of test species were sown in standard soil in pots. After cultivation for 14 days (post-emergence) under controlled conditions in a glasshouse (at 24/16° C., day/night; 14 hours light; 65% humidity), the plants were sprayed with an aqueous spray solution derived from the dissolution of the technical active ingredient formula (I) in a small amount of acetone and a special solvent and emulsifier mixture referred to as IF50 (11.12% Emulsogen EL360 TM+44.44% N-methylpyrrolidone+44.44% Dowanol DPM glycol ether), to create a 50 g/I solution which was then diluted to required concentration using 0.25% or 1% Empicol ESC70 (Sodium lauryl ether sulphate)+1% ammonium sulphate as diluent. The test plants were then grown in a glasshouse under controlled conditions (at 24/16° C., day/night; 14 hours light; 65% humidity) and watered twice daily. After 13 days the test was evaluated (100=total damage to plant; 0=no damage to plant). Ipomoea hederacea (IPOHE), Euphorbia heterophylla (EPHHL), Chenopodium album (CHEAL), Amaranthus palmeri (AMAPA), Lolium perenne (LOLPE), Digitaria sanguinalis (DIGSA), Eleusine indica (ELEIN), Echinochloa crus-galli (ECHCG), Setaria faberi (SETFA)

The subject of experiment [2] is Chenopodium album (CHEAL). The method, then: as §1
Experiment [3] relates to Digitaria sanguinalis (DIGSA). The method, then:
as §1

The test system of experiment [4] is Echinochloa crus-galli (ECHCG). Here is the method: as §1
The next experiment concerns Eleusine indica (ELEIN). Here is the method:
as §1

For experiment [5], the system named is Euphorbia heterophylla (EPHHL). The method, then: as §1
The subject of experiment [6] is Ipomoea hederacea (IPOHE). Here is the method:
as §1

The test system of a further experiment is Lolium perenne (LOLPE). The method, then:
as §1

In a further experiment the test system is Setaria faberi (SETFA). Here is the method:
as §1

For orientation: pest or weed control means the degree to which the test organism was suppressed or injured, in per cent. The low end stands for weak suppression, the high end for strong suppression. As for `COC(=O)CN(C)C(=O)C[n+]1ccc(-c2ncns2)cc1` [Compound A1], the pest or weed control at 500 g/ha in [1] came out at 0%; in experiment [2], 10%; in experiment [3] it was 0%; in experiment [4], 0%; with Eleusine indica (ELEIN) it was 10%; in [5], 10%. Also, the values for the pest or weed control at 500 g/ha (in experiment [6]; in the experiment on Lolium perenne (LOLPE); in the experiment on Setaria faberi (SETFA)) were 10%, 10% and 0%, respectively.
Take `COC(=O)CCNC(=O)C[n+]1ccc(-c2ncns2)cc1` [Compound A2, methyl 3-[[-2-[4-(1,2,4-thiadiazol-5-yl)pyridin-1-ium-1-yl]acetyl]amino]propanoate bromide]: the pest or weed control at 500 g/ha in experiment [1] worked out at 80%; in experiment [2], 90%; in experiment [3], 40%; in [4], 20%; in the experiment with Eleusine indica (ELEIN), 30%; in [5], 40%. The pest or weed control at 500 g/ha in experiment [6] turned out to be 50%; in the experiment with Lolium perenne (LOLPE), 10%; with Setaria faberi (SETFA), 50%.
As to `O=C(O)CNC(=O)C[n+]1ccc(-c2ncns2)cc1` [Compound A3, 2-[[2-[4-(1,2,4-thiadiazol-5-yl)pyridin-1-ium-1-yl]acetyl]amino]acetic acid chloride], the pest or weed control at 500 g/ha in [1] stood at 90%; in [2], 90%; in experiment [3], 100%; in experiment [4], 100%; in the experiment with Eleusine indica (ELEIN) it was 100%; in experiment [5] it was 100%. Further, the pest or weed control at 500 g/ha worked out at 100% in experiment [6], 70% in the experiment on Lolium perenne (LOLPE) and 100% with Setaria faberi (SETFA).
For the molecule `O=C(O)CCNC(=O)C[n+]1ccc(-c2ncns2)cc1` [Compound A4, 3-[[2-[4-(1,2,4-thiadiazol-5-yl)pyridin-1-ium-1-yl]acetyl]amino]propanoic Acid Chloride], the pest or weed control at 500 g/ha worked out at 90% in experiment [1]; 90% in experiment [2]; 100% in [3]; 70% in [4]; 100% in the experiment on Eleusine indica (ELEIN); 90% in experiment [5]. The results for the pest or weed control at 500 g/ha (in experiment [6]; in the experiment with Lolium perenne (LOLPE); with Setaria faberi (SETFA)) were 90%, 90% and 70%, respectively.
For `COC(=O)CNC(=O)C[n+]1ccc(-c2ncns2)cc1` [Compound A5, methyl 2-[[2-[4-(1,2,4-thiadiazol-5-yl)pyridin-1-ium-1-yl]acetyl]amino]acetate bromide], the pest or weed control at 500 g/ha was 90% in [1]; 90% in experiment [2]; 100% in experiment [3]; 90% in experiment [4]; 100% with Eleusine indica (ELEIN); 80% in experiment [5]. For the same molecule, the pest or weed control at 500 g/ha in experiment [6] is 80%; in the experiment on Lolium perenne (LOLPE), 30%; with Setaria faberi (SETFA), 60%.
Turning to `CN(CC(=O)O)C(=O)C[n+]1ccc(-c2ncns2)cc1` [Compound A6], the pest or weed control at 500 g/ha in experiment [1] came to 100%; in experiment [2], 90%; in experiment [3], 90%; in [4], 60%; in the experiment with Eleusine indica (ELEIN), 20%; in [5] it was 90%. The pest or weed control at 500 g/ha (in experiment [6]; in the experiment on Lolium perenne (LOLPE); in the experiment on Setaria faberi (SETFA)) was 40% each time.
Regarding `CC(NC(=O)C[n+]1ccc(-c2ncns2)cc1)C(=O)O` (stereo not drawn) [Compound A7], the pest or weed control at 500 g/ha is 100% in [1]; 90% in experiment [2]; 100% in experiment [3]; 100% in experiment [4]; 100% in the experiment on Eleusine indica (ELEIN); 100% in [5]. Further, the pest or weed control at 500 g/ha turned out to be 100% in experiment [6], 80% in the experiment on Lolium perenne (LOLPE) and 100% in the experiment with Setaria faberi (SETFA).
Turning to `COC(=O)C(C)NC(=O)C[n+]1ccc(-c2ncns2)cc1` (stereo not drawn) [Compound A8], the pest or weed control at 500 g/ha in experiment [1] came out at 100%; in experiment [2], 90%; in experiment [3], 100%; in experiment [4], 100%; with Eleusine indica (ELEIN) it was 100%; in experiment [5], 100%. For the same molecule, the pest or weed control at 500 g/ha was determined as 100% in experiment [6], 60% with Lolium perenne (LOLPE) and 100% in the experiment with Setaria faberi (SETFA).
Turning to `O=C(C[n+]1ccc(-c2ncns2)cc1)NCCS(=O)(=O)[O-]` [Compound A9, 2-[[2-[4-(1,2,4-thiadiazol-5-yl)pyridin-1-ium-1-yl]acetyl]amino]ethanesulfonate], the pest or weed control at 500 g/ha in experiment [1] came out at 90%; in [2], 70%; in [3], 30%; in [4], 30%; in the experiment with Eleusine indica (ELEIN), 50%; in experiment [5], 90%. The pest or weed control at 500 g/ha came out at 60% in [6], 30% in the experiment on Lolium perenne (LOLPE) and 60% in the experiment with Setaria faberi (SETFA).
In the case of `CN(CCS(=O)(=O)[O-])C(=O)C[n+]1ccc(-c2ncns2)cc1` [Compound A10], the pest or weed control at 500 g/ha in experiment [1] amounted to 90%; in [2], 20%; in [3], 40%; in experiment [4], 30%; in the experiment with Eleusine indica (ELEIN), 40%; in [5], 80%. Further, the figures for the pest or weed control at 500 g/ha (in [6]; in the experiment on Lolium perenne (LOLPE); in the experiment on Setaria faberi (SETFA)) were 50%, 20% and 50%, respectively.
For the molecule `O=C(O)CNC(=O)CC[n+]1ccc(-c2ncns2)cc1` [Compound A13], the pest or weed control at 500 g/ha in [1] was 100%; in experiment [2] it was 30%; in experiment [3], 70%; in experiment [4] it was 50%; with Eleusine indica (ELEIN) it was 70%; in [5], 60%. Moreover, the pest or weed control at 500 g/ha in experiment [6] is 20%; in the experiment on Lolium perenne (LOLPE), 40%; in the experiment on Setaria faberi (SETFA), 80%.
Take `O=C(CC[n+]1ccc(-c2ncns2)cc1)NCS(=O)(=O)[O-]` [Compound A14, [3-[4-(1,2,4-thiadiazol-5-yl)pyridin-1-ium-1-yl]propanoylamino]methanesulfonate]: the pest or weed control at 500 g/ha in experiment [1] is 100%; in experiment [2], 90%; in [3] it was 100%; in [4], 70%; in the experiment on Eleusine indica (ELEIN) it was 60%; in experiment [5], 20%. Besides, the results for the pest or weed control at 500 g/ha (in experiment [6]; in the experiment with Lolium perenne (LOLPE); in the experiment with Setaria faberi (SETFA)) were 30%, 10% and 70%, respectively.
As for `O=C(O)CCSC[n+]1ccc(-c2ncns2)cc1` [Compound A15, 3-[[4-(1,2,4-thiadiazol-5-yl)pyridin-1-ium-1-yl]methylsulfanyl]propanoic acid chloride], the pest or weed control at 500 g/ha in [1] came to 100%; in experiment [2] it was 90%; in experiment [3] it was 100%; in experiment [4], 100%; with Eleusine indica (ELEIN), 90%; in experiment [5], 40%. For the same molecule, the results for the pest or weed control at 500 g/ha (in [6]; with Lolium perenne (LOLPE); with Setaria faberi (SETFA)) were 40%, 50% and 100%, respectively.
As to `O=C(C[n+]1ccc(-c2ncns2)cc1)NC1(C(=O)O)CC1` [Compound A16], the pest or weed control at 500 g/ha in experiment [1] was 100%; in experiment [2], 90%; in experiment [3] it was 80%; in [4] it was 90%; in the experiment with Eleusine indica (ELEIN), 40%; in experiment [5], 90%. Further, the values for the pest or weed control at 500 g/ha (in [6]; with Lolium perenne (LOLPE); in the experiment on Setaria faberi (SETFA)) were 50%, 50% and 100%, respectively.
As for `CC(C)(NC(=O)C[n+]1ccc(-c2ncns2)cc1)C(=O)O` [Compound A17], the pest or weed control at 500 g/ha in [1] came out at 100%; in experiment [2] it was 50%; in experiment [3], 80%; in experiment [4], 60%; in the experiment with Eleusine indica (ELEIN), 60%; in experiment [5], 70%. Also, the figures for the pest or weed control at 500 g/ha (in experiment [6]; with Lolium perenne (LOLPE); in the experiment with Setaria faberi (SETFA)) were 40%, 30% and 80%, respectively.
